According to ChEMBL document CHEMBL3769322, “Synthesis and evaluation of anticancer and antiobesity activity of 1-ethoxy carbonyl-3,5-bis (3'-indolyl methylene)-4-pyperidone analogs” (Bioorg Med Chem Lett, 2016):

Experiments:
[1] = Cytotoxicity against human SKOV3 cells by MTT assay; format: functional, cell-based; conditions: SK-OV-3
[2] = Inhibition of porcine pancreatic lipase type 2 using p-nitrophenyl laurate as substrate after 2 hrs by UV spectrophotometric analysis; design: species or system Sus scrofa
HeLa = experiment: Cytotoxicity against human HeLa cells by MTT assay; format: functional, cell-based
MCF7 = experiment: Cytotoxicity against human MCF7 cells by MTT assay; format: functional, cell-based
HepG2 = experiment: Cytotoxicity activity against human HepG2 cells by MTT assay; format: functional, cell-based
A549 = experiment: Cytotoxicity against human A549 cells by MTT assay; format: functional, cell-based

SMILES	IC50 [1] [µM]	IC50 [2]	IC50 (HeLa) [µM]	IC50 (MCF7) [µM]	IC50 (HepG2) [µM]	IC50 (A549) [µM]	IC50 ([2]; read-out: IC50) [µM]
CCOC(=O)N1C/C(=C\c2cn(Cc3ccccc3)c3ccccc23)C(=O)/C(=C/c2cn(Cc3ccccc3)c3ccccc23)C1	> 100	Not Active	> 100	> 100	> 100	> 100	
CCOC(=O)N1C/C(=C\c2cn(Cc3ccccc3F)c3ccccc23)C(=O)/C(=C/c2cn(Cc3ccccc3F)c3ccccc23)C1	85.5		> 100	> 100	> 100	29.1	56.4
CCOC(=O)N1C/C(=C\c2cn(Cc3ccccc3Cl)c3ccccc23)C(=O)/C(=C/c2cn(Cc3ccccc3Cl)c3ccccc23)C1	50.6	Not Active	> 100	> 100	> 100	2.75	
CCOC(=O)N1C/C(=C\c2cn(Cc3ccc([N+](=O)[O-])cc3)c3ccccc23)C(=O)/C(=C/c2cn(Cc3ccc([N+](=O)[O-])cc3)c3ccccc23)C1	> 100		> 100	> 100	> 100	16	30.9
CCOC(=O)N1C/C(=C\c2cn(Cc3ccc(F)cc3)c3ccccc23)C(=O)/C(=C/c2cn(Cc3ccc(F)cc3)c3ccccc23)C1	> 100	Not Active	48	> 100	> 100	> 100	
CCOC(=O)N1C/C(=C\c2cn(Cc3ccccc3C#N)c3ccccc23)C(=O)/C(=C/c2cn(Cc3ccccc3C#N)c3ccccc23)C1	> 100	Not Active	> 100	> 100	> 100	> 100	
CCOC(=O)N1C/C(=C\c2cn(Cc3ccc(Cl)cc3Cl)c3ccccc23)C(=O)/C(=C/c2cn(Cc3ccc(Cl)cc3Cl)c3ccccc23)C1	> 100		> 100	> 100	> 100	> 100	14.9
CCOC(=O)N1C/C(=C\c2cn(Cc3ccc(Br)cc3)c3ccccc23)C(=O)/C(=C/c2cn(Cc3ccc(Br)cc3)c3ccccc23)C1	> 100	Not Active	> 100	> 100	> 100	> 100	
CCOC(=O)N1C/C(=C\c2cn(Cc3ccc(-c4ccccc4C#N)cc3)c3ccccc23)C(=O)/C(=C/c2cn(Cc3ccc(-c4ccccc4C#N)cc3)c3ccccc23)C1	> 100	Not Active	> 100	> 100	> 100	> 100	
CCOC(=O)N1C/C(=C\c2cn(C)c3ccccc23)C(=O)/C(=C/c2cn(C)c3ccccc23)C1	55.1	Not Active	> 100	> 100	> 100	66.7	
CCOC(=O)N1C/C(=C\c2cn(Cc3cccc(Cl)c3)c3ccccc23)C(=O)/C(=C/c2cn(Cc3cccc(Cl)c3)c3ccccc23)C1	18	Not Active	> 100	> 100	7.33	4.21	
COc1cc(/C=C/C(=O)CC(=O)/C=C/c2ccc(O)c(OC)c2)ccc1O [CURCUMIN]	49.9		51.9	46.2	4.43	23.5	
COc1cccc2c1C(=O)c1c(O)c3c(c(O)c1C2=O)C[C@@](O)(C(=O)CO)C[C@@H]3O[C@H]1C[C@H](N)[C@H](O)[C@H](C)O1 [DOXORUBICIN]	16.4		9.03		10.2	0.14	
CCCCCCCCCCC[C@@H](C[C@@H]1OC(=O)[C@H]1CCCCCC)OC(=O)[C@H](CC(C)C)NC=O [ORLISTAT]							62.2
